The target of assay [1] is T1, medaka TMT1A opsin (C-terminally truncated) (Oryzias latipes, UniProt R9R6D2).
T1 construct: gene tmtops1a; C-terminal 63 residues deleted; C-terminal rho1D4 tag (ETSQVAPA) kept; HEK293T, pMT4; purified in dodecyl maltoside, also membranes; cDNA cloned from medaka brain
T1 sequence (R9R6D2 1-342): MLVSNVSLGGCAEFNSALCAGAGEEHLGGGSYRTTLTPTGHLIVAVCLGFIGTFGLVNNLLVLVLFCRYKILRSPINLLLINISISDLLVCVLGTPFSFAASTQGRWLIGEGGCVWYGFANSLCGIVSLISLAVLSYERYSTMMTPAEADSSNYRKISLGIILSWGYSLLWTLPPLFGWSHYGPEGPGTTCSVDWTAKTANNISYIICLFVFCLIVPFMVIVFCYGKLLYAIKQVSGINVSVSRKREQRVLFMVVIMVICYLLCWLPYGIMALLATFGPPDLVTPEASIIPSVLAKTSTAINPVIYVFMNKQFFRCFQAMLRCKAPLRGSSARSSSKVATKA
Nature of the assay: UV-visible spectroscopy; HPLC of chromophore. In kind it is binding. Conditions: covalent (Schiff base); formed in situ by orange light (>540 nm) from the all-trans state; 0 °C.

Assay [2] concerns the target T2, medaka TMT2 opsin (Oryzias latipes, UniProt R9R6C6).
T2 construct: gene tmtops2; full length; C-terminal rho1D4 tag (ETSQVAPA) kept; HEK293T, pMT4; partially purified in dodecyl maltoside, also membranes; cDNA cloned from medaka brain
T2 sequence (R9R6C6 1-355): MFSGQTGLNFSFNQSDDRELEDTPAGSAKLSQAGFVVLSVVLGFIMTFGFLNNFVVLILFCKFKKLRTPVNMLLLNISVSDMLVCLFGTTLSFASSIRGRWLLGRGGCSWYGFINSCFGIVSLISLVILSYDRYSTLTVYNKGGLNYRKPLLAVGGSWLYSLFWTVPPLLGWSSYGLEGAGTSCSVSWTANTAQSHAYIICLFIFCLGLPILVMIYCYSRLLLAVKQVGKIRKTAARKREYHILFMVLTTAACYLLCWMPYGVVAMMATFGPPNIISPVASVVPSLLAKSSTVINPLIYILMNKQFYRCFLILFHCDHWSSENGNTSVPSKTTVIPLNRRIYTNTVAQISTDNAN
Nature of the assay: UV-visible spectroscopy; acid denaturation; HPLC; GTPγS exchange with Gi and Go. In kind it is biochemical. The settings on record: covalent (unprotonated Schiff base); agonist; formed in situ by blue light (460 nm); 0 °C.

Assay [3] deals with T1, medaka TMT1A opsin (C-terminally truncated). Nature of the assay: UV-visible spectroscopy; HPLC of chromophore; GTPγS exchange with Gi and Go. The settings on record: covalent (protonated Schiff base); agonist; formed in situ by blue light (460 nm); 0 °C. It is filed as biochemical.
The target in assay [4] is T3, medaka TMT1A opsin (C-terminally truncated) (Oryzias latipes, UniProt R9R6D2, T190S).
T3 construct: gene tmtops1a; C-terminal 63 residues deleted; C-terminal rho1D4 tag (ETSQVAPA) kept; HEK293T, pMT4; purified in dodecyl maltoside, also membranes; cDNA cloned from medaka brain
Nature of the assay: UV-visible spectroscopy before and after irradiation. In kind it is binding. The settings on record: covalent (Schiff base); 0 °C; bovine rhodopsin numbering; truncation of mutant not stated.

Assay [5] has as its target T2, medaka TMT2 opsin. Kind of assay: UV-visible spectroscopy; HPLC of chromophore. It is filed as binding. The settings on record: covalent (Schiff base); reconstituted pigment in the dark; 0 °C, pH 6.5, 0.02% dodecyl maltoside.
The target in assay [6] is T4, full-length TMT1A opsin (Oryzias latipes, UniProt R9R6D2).
T4 construct: gene tmtops1a; full length; C-terminal rho1D4 tag (ETSQVAPA) kept; HEK293T, pMT4; purified
T4 sequence (R9R6D2 1-405): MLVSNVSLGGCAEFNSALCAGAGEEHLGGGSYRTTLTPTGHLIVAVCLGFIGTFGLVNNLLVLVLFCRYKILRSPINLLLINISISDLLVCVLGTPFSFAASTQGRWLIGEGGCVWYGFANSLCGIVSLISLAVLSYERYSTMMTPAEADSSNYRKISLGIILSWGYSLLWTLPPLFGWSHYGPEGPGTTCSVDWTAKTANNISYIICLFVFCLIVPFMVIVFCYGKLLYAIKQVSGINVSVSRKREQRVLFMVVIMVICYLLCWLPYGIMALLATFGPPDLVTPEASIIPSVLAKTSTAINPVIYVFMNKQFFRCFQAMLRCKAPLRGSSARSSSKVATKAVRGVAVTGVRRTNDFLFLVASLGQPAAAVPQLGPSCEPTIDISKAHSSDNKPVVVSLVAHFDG
Nature of the assay: UV-visible spectroscopy. In kind it is binding. Conditions: covalent (Schiff base); reconstituted pigment.

T3 sequence (R9R6D2 entry or part of it T190S): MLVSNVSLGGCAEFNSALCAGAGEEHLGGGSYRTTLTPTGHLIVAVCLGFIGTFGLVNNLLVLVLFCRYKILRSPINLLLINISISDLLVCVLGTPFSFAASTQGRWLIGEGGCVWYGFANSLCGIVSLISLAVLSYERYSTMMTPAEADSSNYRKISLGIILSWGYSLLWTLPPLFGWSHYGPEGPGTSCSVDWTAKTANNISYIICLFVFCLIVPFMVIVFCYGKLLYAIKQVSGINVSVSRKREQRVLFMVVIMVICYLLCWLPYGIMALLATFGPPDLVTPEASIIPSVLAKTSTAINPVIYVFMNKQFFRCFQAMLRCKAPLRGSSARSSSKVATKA

Take `CC1=C(/C=C/C(C)=C\C=C\C(C)=C\C=O)C(C)(C)CCC1` [9-cis-retinal]: in assay [1], the “UV-visible spectroscopy; HPLC of chromophore” value is “showed the formation of products having 9-cis and 7-cis forms (Fig 2E)”. In the case of `CC1=C(/C=C/C(C)=C/C=C/C(C)=C/C=O)C(C)(C)CCC1` [all-trans-retinal], in assay [2], the “UV-visible spectroscopy; acid denaturation; HPLC; GTPγS exchange with Gi and Go” value was “indicating that the all-trans product was the G protein-activating state of TMT2 opsin”. Also, the “UV-visible spectroscopy; HPLC of chromophore; GTPγS exchange with Gi and Go” value in assay [3] is listed as “indicating that the all-trans product is a G protein-activating state”. For the compound `CC1=C(/C=C/C(C)=C/C=C\C(C)=C\C=O)C(C)(C)CCC1` [11-cis-retinal], in assay [4], the “UV-visible spectroscopy before and after irradiation” value is “We then constructed a single mutant (T186S) of TMT1A opsin”. Moreover, the “UV-visible spectroscopy; HPLC of chromophore” value in assay [5] is “partially purified pigment of TMT2 opsin after reconstitution with 11-cis-retinal”. The UV-visible spectroscopy entry in assay [6] was “Full-length pigment was formed after reconstitution with 11-cis-retinal”. Regarding `CC1=C(\C=C/C(C)=C/C=C/C(C)=C/C=O)C(C)(C)CCC1` [7-cis-retinal], the “UV-visible spectroscopy; HPLC of chromophore” value in assay [1] is “showed the formation of products having 9-cis and 7-cis forms (Fig 2E)”.
